Patent US11098038B2, “Imidazole-based anticancer agents and derivatives thereof, and methods of making and using same” (The University of Toledo, priority 2017, dated 2021)

What was measured:
PC-3 = assay: NCI 60 screen, PC-3; type: cell-based; details: Homo sapiens, Prostatic
Procedure: (§1) The compounds synthesized were tested at the National Cancer Institute (NCI) for anti-proliferative activity in the 60 human tumor cell line assay.

OVCAR-4 = assay: NCI 60 screen, OVCAR-4; type: cell-based; details: Homo sapiens, Ovarian
Procedure: as §1

T-47D = assay: NCI 60 screen, T-47D; type: cell-based; details: Homo sapiens, T47D, Breast
Procedure: as §1

SR = assay: NCI 60 screen, SR; type: cell-based; details: Homo sapiens, Leukemia
Procedure: as §1

IGROV1 = assay: NCI 60 screen, IGROV1; type: cell-based; details: Homo sapiens, IGROV-1, Ovarian
Procedure: as §1

NCI-H226 = assay: NCI 60 screen, NCI-H226; type: cell-based; details: Homo sapiens, Non-Small Cell Lung
Procedure: as §1

CCRF-CEM = assay: NCI 60 screen, CCRF-CEM; type: cell-based; details: Homo sapiens, Leukemia
Procedure: as §1

SNB-75 = assay: NCI 60 screen, SNB-75; type: cell-based; details: Homo sapiens, CNS
Procedure: as §1

RPMI-8226 = assay: NCI 60 screen, RPMI-8226; type: cell-based; details: Homo sapiens, Leukemia
Procedure: as §1

A549/ATCC = assay: NCI 60 screen, A549/ATCC; type: cell-based; details: Homo sapiens, Non-Small Cell Lung
Procedure: as §1

NCI-H522 = assay: NCI 60 screen, NCI-H522; type: cell-based; details: Homo sapiens, Non-Small Cell Lung
Procedure: as §1

U251 = assay: NCI 60 screen, U251; type: cell-based; details: Homo sapiens, U-251, CNS
Procedure: as §1

CAKI-1 = assay: NCI 60 screen, CAKI-1; type: cell-based; details: Homo sapiens, Renal
Procedure: as §1

NCI-460 = assay: NCI 60 screen, NCI-460; type: cell-based; details: Homo sapiens, Non-Small Cell Lung
Procedure: as §1

M14 = assay: NCI 60 screen, M14; type: cell-based; details: Homo sapiens, Melanoma
Procedure: as §1

BT-549 = assay: NCI 60 screen, BT-549; type: cell-based; details: Homo sapiens, Breast
Procedure: as §1

HL-60(TB) = assay: NCI 60 screen, HL-60(TB); type: cell-based; details: Homo sapiens, Leukemia
Procedure: as §1

MALME-3M = assay: NCI 60 screen, MALME-3M; type: cell-based; details: Homo sapiens, Melanoma
Procedure: as §1

HCT15 = assay: NCI 60 screen, HCT15; type: cell-based; details: Homo sapiens, HCT-15, Colon
Procedure: as §1

ACHN = assay: NCI 60 screen, ACHN; type: cell-based; details: Homo sapiens, Renal
Procedure: as §1

UACC-62 = assay: NCI 60 screen, UACC-62; type: cell-based; details: Homo sapiens, Melanoma
Procedure: as §1

SK-OV-3 = assay: NCI 60 screen, SK-OV-3; type: cell-based; details: Homo sapiens, Ovarian
Procedure: as §1

SNB-19 = assay: NCI 60 screen, SNB-19; type: cell-based; details: Homo sapiens, CNS
Procedure: as §1

RXF393 = assay: NCI 60 screen, RXF393; type: cell-based; details: Homo sapiens, RXF 393, Renal
Procedure: as §1

SK-MEL-2 [1] = assay: NCI 60 screen, SK-MEL-2 (first line); type: cell-based; details: Homo sapiens; Melanoma, SK-MEL-2 (first of two lines so named, r37)
Procedure: as §1

HCT-116 = assay: NCI 60 screen, HCT-116; type: cell-based; details: Homo sapiens, Colon
Procedure: as §1

TK-10 = assay: NCI 60 screen, TK-10; type: cell-based; details: Homo sapiens, Renal
Procedure: as §1

K-562 = assay: NCI 60 screen, K-562; type: cell-based; details: Homo sapiens, K562, Leukemia
Procedure: as §1

LOX IMVI = assay: NCI 60 screen, LOX IMVI; type: cell-based; details: Homo sapiens, Melanoma
Procedure: as §1

SK-MEL-2 [2] = assay: NCI 60 screen, SK-MEL-2 (second line); type: cell-based; details: Homo sapiens; Melanoma, SK-MEL-2 (second of two lines so named, r38)
Procedure: as §1

HT29 = assay: NCI 60 screen, HT29; type: cell-based; details: Homo sapiens, HT-29, Colon
Procedure: as §1

SW-620 = assay: NCI 60 screen, SW-620; type: cell-based; details: Homo sapiens, Colon
Procedure: as §1

HOP-62 = assay: NCI 60 screen, HOP-62; type: cell-based; details: Homo sapiens, Non-Small Cell Lung
Procedure: as §1

786-0 = assay: NCI 60 screen, 786-0; type: cell-based; details: Homo sapiens, Renal
Procedure: as §1

MDA-MB-231/ATCC = assay: NCI 60 screen, MDA-MB-231/ATCC; type: cell-based; details: Homo sapiens, Breast
Procedure: as §1

SK-MEL-5 = assay: NCI 60 screen, SK-MEL-5; type: cell-based; details: Homo sapiens, Melanoma
Procedure: as §1

NCI-H23 = assay: NCI 60 screen, NCI-H23; type: cell-based; details: Homo sapiens, Non-Small Cell Lung
Procedure: as §1

MDA-MB-435 = assay: NCI 60 screen, MDA-MB-435; type: cell-based; details: Homo sapiens, Melanoma
Procedure: as §1

MOLT-4 = assay: NCI 60 screen, MOLT-4; type: cell-based; details: Homo sapiens, Leukemia
Procedure: as §1

DU-145 = assay: NCI 60 screen, DU-145; type: cell-based; details: Homo sapiens, Prostatic
Procedure: as §1

HS 578T = assay: NCI 60 screen, HS 578T; type: cell-based; details: Homo sapiens, Breast
Procedure: as §1

UACC-257 = assay: NCI 60 screen, UACC-257; type: cell-based; details: Homo sapiens, Melanoma
Procedure: as §1

SF-268 = assay: NCI 60 screen, SF-268; type: cell-based; details: Homo sapiens, CNS
Procedure: as §1

EKVX = assay: NCI 60 screen, EKVX; type: cell-based; details: Homo sapiens, Non-Small Cell Lung
Procedure: as §1

SN12C = assay: NCI 60 screen, SN12C; type: cell-based; details: Homo sapiens, Renal
Procedure: as §1

COLO 205 = assay: NCI 60 screen, COLO 205; type: cell-based; details: Homo sapiens, Colon
Procedure: as §1

KM12 = assay: NCI 60 screen, KM12; type: cell-based; details: Homo sapiens, Colon
Procedure: as §1

OVCAR-5 = assay: NCI 60 screen, OVCAR-5; type: cell-based; details: Homo sapiens, Ovarian
Procedure: as §1

SF-295 = assay: NCI 60 screen, SF-295; type: cell-based; details: Homo sapiens, CNS
Procedure: as §1

SF-539 = assay: NCI 60 screen, SF-539; type: cell-based; details: Homo sapiens, CNS
Procedure: as §1

HCC-2998 = assay: NCI 60 screen, HCC-2998; type: cell-based; details: Homo sapiens, Colon
Procedure: as §1

MDA-MB-468 = assay: NCI 60 screen, MDA-MB-468; type: cell-based; details: Homo sapiens, Breast
Procedure: as §1

HOP-92 = assay: NCI 60 screen, HOP-92; type: cell-based; details: Homo sapiens, Non-Small Cell Lung
Procedure: as §1

UO-31 = assay: NCI 60 screen, UO-31; type: cell-based; details: Homo sapiens, Renal
Procedure: as §1

MCF7 = assay: NCI 60 screen, MCF7; type: cell-based; details: Homo sapiens, Breast
Procedure: as §1

NCI/ADR-RES = assay: NCI 60 screen, NCI/ADR-RES; type: cell-based; details: Homo sapiens, Ovarian
Procedure: as §1

OVCAR-8 = assay: NCI 60 screen, OVCAR-8; type: cell-based; details: Homo sapiens, Ovarian
Procedure: as §1

NCI-322M = assay: NCI 60 screen, NCI-322M; type: cell-based; details: Homo sapiens, Non-Small Cell Lung
Procedure: as §1

OVCAR-3 = assay: NCI 60 screen, OVCAR-3; type: cell-based; details: Homo sapiens, Ovarian
Procedure: as §1

A498 = assay: NCI 60 screen, A498; type: cell-based; details: Homo sapiens, Renal
Procedure: as §1

In the case of `CCn1ccnc1C(=O)/C=C/c1ccc(CC(=O)Nc2ccc(F)cc2)cc1` [Compound 31, (E)-2-(4-(3-(1-ethyl-1H-imidazol-2-yl)-3-oxoprop-1-en-1-yl)phenyl)-N-(4-fluorophenyl)acetamide], the GI50 (PC-3) was 7.06 µM, the GI50 (OVCAR-4) was 3.31 µM and the GI50 (T-47D) was 3.8 µM. For the same molecule, the GI50 (SR) was 0.53 µM, the GI50 (IGROV1) was 4.63 µM and the GI50 (NCI-H226) was 3.61 µM. The GI50 (CCRF-CEM) was 4.34 µM, the GI50 (SNB-75) was 2.81 µM and the GI50 (RPMI-8226) was 2.28 µM. The GI50 (A549/ATCC) was 4.16 µM, the GI50 (NCI-H522) was 3.92 µM and the GI50 (U251) was 1.88 µM. For the same molecule, the GI50 (CAKI-1) was 5.08 µM, the GI50 (NCI-460) was 2.64 µM and the GI50 (M14) was 3.02 µM. For the same molecule, the GI50 (BT-549) was 2.94 µM, the GI50 (HL-60(TB)) was 3.18 µM and the GI50 (MALME-3M) was 16.7 µM. For the same molecule, the GI50 (HCT15) was 1.93 µM, the GI50 (ACHN) was 3.95 µM and the GI50 (UACC-62) was 2.83 µM. For the same molecule, the GI50 (SK-OV-3) was 6.97 µM, the GI50 (SNB-19) was 3.58 µM and the GI50 (RXF393) was 3.39 µM. For the same molecule, the GI50 (SK-MEL-2 [1]) was 6.26 µM, the GI50 (HCT-116) was 1.84 µM and the GI50 (TK-10) was 6.01 µM. For the same molecule, the GI50 (K-562) was 2.06 µM, the GI50 (LOX IMVI) was 0.56 µM and the GI50 (SK-MEL-2 [2]) was 4.92 µM. For the same molecule, the GI50 (HT29) was 5.64 µM, the GI50 (SW-620) was 4.29 µM and the GI50 (HOP-62) was 3.92 µM. It also gave a GI50 (786-0) of 4.36 µM, a GI50 (MDA-MB-231/ATCC) of 3.36 µM and a GI50 (SK-MEL-5) of 5.74 µM. For the same molecule, the GI50 (NCI-H23) was 4.25 µM, the GI50 (MDA-MB-435) was 4.58 µM and the GI50 (MOLT-4) was 5.28 µM. For the same molecule, the GI50 (DU-145) was 4.45 µM, the GI50 (HS 578T) was 5.36 µM and the GI50 (UACC-257) was 14 µM. For the same molecule, the GI50 (SF-268) was 3.81 µM, the melting point was 219 to 220 °C and the GI50 (EKVX) was 3.59 µM. The GI50 (SN12C) was 3.71 µM, the GI50 (COLO 205) was 4.29 µM and the GI50 (KM12) was 3.06 µM. The GI50 (OVCAR-5) was 4.97 µM, the GI50 (SF-295) was 4.41 µM and the GI50 (SF-539) was 2.93 µM. The GI50 (HCC-2998) was 5.1 µM, the GI50 (MDA-MB-468) was 1.99 µM and the GI50 (HOP-92) was 3.32 µM. The GI50 (UO-31) was 2.65 µM, the GI50 (MCF7) was 2.52 µM and the GI50 (NCI/ADR-RES) was 5.37 µM. For the same molecule, the GI50 (OVCAR-8) was 4.86 µM, the GI50 (NCI-322M) was 3.49 µM and the GI50 (OVCAR-3) was 3.92 µM. The GI50 (A498) was 3.73 µM.
